Test results taken from patent US12552775B2, “Compounds and uses thereof” (Foghorn Therapeutics Inc., priority 2020, dated 2026).

Tests used:
[1] = molecular target: T1, HiBit-BRG1 fusion protein (Homo sapiens, UniProt P51532); experiment: HiBiT-BRG1 cell-based degradation assay (Nano-Glo HiBiT Lytic Detection, 24 h); details: stable HeLa cell line expressing HiBit-BRG1 and LgBit, top dose 30 μM, read-out: BRG1 HiBit Degradation Maximum (%)
T1 construct: expressed in transfected cells
In short: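 HeLa cells stably expressing HiBiT-BRG1 plus LgBiT were treated with 10-point 3-fold compound dilutions (top 30 μM final) for 24 h. Lytic Nano-Glo HiBiT luminescence was read. % degradation was normalised between DMSO (high control) and 2 μM of a reference BRM/BRG1 degrader (low control).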

[2] = molecular target: T2, HiBit-BRM fusion protein (Homo sapiens, UniProt P51531); experiment: HiBiT-BRM cell-based degradation assay (Nano-Glo HiBiT Lytic Detection, 24 h); details: stable HeLa cell line expressing HiBiT-BRM, top dose 30 μM
T2 construct: expressed in transfected cells
T2 sequence (P51531 whole entry, the tested form may be a part): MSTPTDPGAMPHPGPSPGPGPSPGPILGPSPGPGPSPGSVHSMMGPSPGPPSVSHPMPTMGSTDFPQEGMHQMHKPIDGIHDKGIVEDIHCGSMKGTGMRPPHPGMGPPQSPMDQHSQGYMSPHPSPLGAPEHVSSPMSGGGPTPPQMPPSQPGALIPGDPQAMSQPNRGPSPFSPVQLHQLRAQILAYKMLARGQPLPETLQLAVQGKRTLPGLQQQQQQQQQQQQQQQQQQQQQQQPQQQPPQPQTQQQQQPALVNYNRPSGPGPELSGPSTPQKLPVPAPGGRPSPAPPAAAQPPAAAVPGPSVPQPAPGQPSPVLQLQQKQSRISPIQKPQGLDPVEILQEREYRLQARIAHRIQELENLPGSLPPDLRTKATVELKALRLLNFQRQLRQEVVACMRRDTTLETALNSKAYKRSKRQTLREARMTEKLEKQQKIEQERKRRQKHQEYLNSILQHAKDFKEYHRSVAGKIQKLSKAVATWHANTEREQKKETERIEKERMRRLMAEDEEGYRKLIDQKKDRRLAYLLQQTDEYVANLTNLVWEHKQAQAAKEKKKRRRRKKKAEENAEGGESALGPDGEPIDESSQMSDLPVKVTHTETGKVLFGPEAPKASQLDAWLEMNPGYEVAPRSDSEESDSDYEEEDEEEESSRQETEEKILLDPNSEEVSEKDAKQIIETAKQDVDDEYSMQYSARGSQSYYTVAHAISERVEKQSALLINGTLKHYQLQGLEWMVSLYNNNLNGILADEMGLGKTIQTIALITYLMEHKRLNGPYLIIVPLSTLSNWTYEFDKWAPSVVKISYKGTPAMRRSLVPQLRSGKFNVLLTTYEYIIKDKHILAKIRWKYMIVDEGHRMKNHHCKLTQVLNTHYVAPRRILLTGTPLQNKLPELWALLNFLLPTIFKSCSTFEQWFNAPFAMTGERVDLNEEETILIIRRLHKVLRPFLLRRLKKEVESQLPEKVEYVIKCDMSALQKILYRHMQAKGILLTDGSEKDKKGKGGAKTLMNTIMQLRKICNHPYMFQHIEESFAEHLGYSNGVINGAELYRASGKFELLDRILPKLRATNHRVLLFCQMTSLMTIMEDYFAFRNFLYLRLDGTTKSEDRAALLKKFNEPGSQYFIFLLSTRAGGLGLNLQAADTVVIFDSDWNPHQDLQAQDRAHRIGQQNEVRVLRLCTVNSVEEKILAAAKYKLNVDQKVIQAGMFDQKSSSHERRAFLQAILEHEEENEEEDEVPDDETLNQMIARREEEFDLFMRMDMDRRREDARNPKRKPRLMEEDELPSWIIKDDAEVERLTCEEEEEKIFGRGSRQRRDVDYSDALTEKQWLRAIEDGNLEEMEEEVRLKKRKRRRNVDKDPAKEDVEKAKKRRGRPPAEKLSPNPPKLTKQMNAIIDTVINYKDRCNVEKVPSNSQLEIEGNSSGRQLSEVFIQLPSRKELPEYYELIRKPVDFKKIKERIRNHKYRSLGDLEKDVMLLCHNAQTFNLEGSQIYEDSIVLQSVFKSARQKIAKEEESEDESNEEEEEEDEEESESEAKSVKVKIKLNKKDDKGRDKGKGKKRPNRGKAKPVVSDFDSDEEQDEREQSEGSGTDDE
In short: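 HiBiT-tagged BRM levels in a stable HeLa line are measured after one day of compound treatment (up to 30 μM final, duplicate 10-point curves) by adding LgBiT lytic reagent and reading bioluminescence; values are expressed relative to vehicle and a 2 μM degrader control.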

T1 sequence (P51532 whole entry, the tested form may be a part): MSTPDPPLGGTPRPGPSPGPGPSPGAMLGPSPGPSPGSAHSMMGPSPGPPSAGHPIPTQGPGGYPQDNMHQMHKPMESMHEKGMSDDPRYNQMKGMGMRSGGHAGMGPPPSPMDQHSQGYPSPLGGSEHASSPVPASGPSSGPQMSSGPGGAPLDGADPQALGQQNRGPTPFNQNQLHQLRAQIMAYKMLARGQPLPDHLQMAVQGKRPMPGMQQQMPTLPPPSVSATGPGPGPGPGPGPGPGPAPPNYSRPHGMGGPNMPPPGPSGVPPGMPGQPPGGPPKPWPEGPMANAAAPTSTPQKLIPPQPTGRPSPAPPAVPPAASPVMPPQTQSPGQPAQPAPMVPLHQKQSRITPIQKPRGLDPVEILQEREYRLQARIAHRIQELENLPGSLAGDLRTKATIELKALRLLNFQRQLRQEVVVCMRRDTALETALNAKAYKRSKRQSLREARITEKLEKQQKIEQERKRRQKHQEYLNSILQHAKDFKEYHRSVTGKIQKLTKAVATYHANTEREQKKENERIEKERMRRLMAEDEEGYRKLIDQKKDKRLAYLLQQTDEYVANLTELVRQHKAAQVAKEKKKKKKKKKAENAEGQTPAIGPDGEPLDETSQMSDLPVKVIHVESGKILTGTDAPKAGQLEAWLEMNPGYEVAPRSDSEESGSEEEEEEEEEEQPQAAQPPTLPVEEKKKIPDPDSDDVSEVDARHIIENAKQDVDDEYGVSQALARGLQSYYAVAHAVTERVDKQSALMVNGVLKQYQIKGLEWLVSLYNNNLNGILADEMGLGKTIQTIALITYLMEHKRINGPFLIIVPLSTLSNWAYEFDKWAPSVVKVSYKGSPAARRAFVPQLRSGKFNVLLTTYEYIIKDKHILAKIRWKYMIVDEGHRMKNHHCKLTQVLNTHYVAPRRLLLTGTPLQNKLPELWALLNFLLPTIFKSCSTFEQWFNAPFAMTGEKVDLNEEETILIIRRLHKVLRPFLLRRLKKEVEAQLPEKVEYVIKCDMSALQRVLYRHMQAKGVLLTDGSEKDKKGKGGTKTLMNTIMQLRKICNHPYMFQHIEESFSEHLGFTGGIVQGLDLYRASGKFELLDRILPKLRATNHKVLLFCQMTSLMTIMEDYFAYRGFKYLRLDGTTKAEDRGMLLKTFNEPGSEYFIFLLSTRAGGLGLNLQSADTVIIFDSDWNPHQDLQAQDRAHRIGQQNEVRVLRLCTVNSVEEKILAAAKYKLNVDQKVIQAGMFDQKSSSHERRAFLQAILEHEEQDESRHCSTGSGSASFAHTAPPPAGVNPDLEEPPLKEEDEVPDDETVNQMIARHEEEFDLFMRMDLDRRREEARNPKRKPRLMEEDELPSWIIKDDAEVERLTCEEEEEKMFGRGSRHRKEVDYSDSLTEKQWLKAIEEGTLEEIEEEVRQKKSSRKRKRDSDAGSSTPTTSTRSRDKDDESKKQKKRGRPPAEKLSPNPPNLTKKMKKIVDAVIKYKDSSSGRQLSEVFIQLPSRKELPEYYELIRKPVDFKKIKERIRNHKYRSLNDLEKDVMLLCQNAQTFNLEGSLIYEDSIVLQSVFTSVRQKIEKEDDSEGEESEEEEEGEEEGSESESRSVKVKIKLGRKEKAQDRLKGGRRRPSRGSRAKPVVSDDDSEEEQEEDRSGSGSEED

| Dmax [1] | Structure (SMILES) | BRM HiBit Degradation Maximum (%) [2] |
| --- | --- | --- |
| < 50% | Nc1nnc(-c2ccccc2O)cc1OCC12CC(C(=O)NC3CCN(CCOc4ccc5c(c4)C(=O)N(C4CCC(=O)NC4=O)C5=O)CC3)(C1)C2 (stereo not shown) [Compound 80, 3-(((3-amino-6-(2-hydroxyphenyl)pyridazin-4-yl)oxy)methyl)-N-(1-(2-((2-(2,6-dioxopiperidin-3-yl)-1,3-dioxoisoindolin-5-yl)oxy)ethyl)piperidin-4-yl)bicyclo[1.1.1]pentane-1-carboxamide] | C (“C” indicates maximum degradation < 50%) |
| < 50% | Nc1nnc(-c2ccccc2O)cc1OCC12CC(C(=O)NCCOc3cccc(OCCNc4ccc5c(c4)C(=O)N(C4CCC(=O)NC4=O)C5=O)c3)(C1)C2 (stereo not shown) [Compound 82, 3-(((3-amino-6-(2-hydroxyphenyl)pyridazin-4-yl)oxy)methyl)-N-(2-(3-(2-((2-(2,6-dioxopiperidin-3-yl)-1,3-dioxoisoindolin-5-yl)amino)ethoxy)phenoxy)ethyl)bicyclo[1.1.1]pentane-1-carboxamide] | C (“C” indicates maximum degradation < 50%) |
| < 50% | Nc1nnc(-c2ccccc2O)cc1OCC12CC(C(=O)NCCOc3cccc(OCCNc4cccc5c4C(=O)N(C4CCC(=O)NC4=O)C5=O)c3)(C1)C2 (stereo not shown) [Compound 83, 3-(((3-amino-6-(2-hydroxyphenyl)pyridazin-4-yl)oxy)methyl)-N-(2-(3-(2-((2-(2,6-dioxopiperidin-3-yl)-1,3-dioxoisoindolin-4-yl)amino)ethoxy)phenoxy)ethyl)bicyclo[1.1.1]pentane-1-carboxamide] | C (“C” indicates maximum degradation < 50%) |
| > 50% | Nc1nnc(-c2ccccc2O)cc1OCC12CC(C(=O)N3CC(COc4ccc5c(c4)C(=O)N(C4CCC(=O)NC4=O)C5=O)C3)(C1)C2 (stereo not shown) [Compound 86, 5-((1-(3-(((3-amino-6-(2-hydroxyphenyl)pyridazin-4-yl)oxy)methyl)bicyclo[1.1.1]pentane-1-carbonyl)azetidin-3-yl)methoxy)-2-(2,6-dioxopiperidin-3-yl)isoindoline-1,3-dione] | B (“B” indicates maximum degradation ≥ 50%) |
| < 50% | Nc1nnc(-c2ccccc2O)cc1OCC12CC(C(=O)NCCCC#Cc3ccc4c(c3)C(=O)N(C3CCC(=O)NC3=O)C4=O)(C1)C2 (stereo not shown) [Compound 89, 3-(((3-amino-6-(2-hydroxyphenyl)pyridazin-4-yl)oxy)methyl)-N-(5-(2-(2,6-dioxopiperidin-3-yl)-1,3-dioxoisoindolin-5-yl)pent-4-yn-1-yl)bicyclo[1.1.1]pentane-1-carboxamide] | C (“C” indicates maximum degradation < 50%) |
| < 50% | Nc1nnc(-c2ccccc2O)cc1OCC12CC(C(=O)NCCOCCOCCNC(=O)COc3cccc4c3C(=O)N(C3CCC(=O)NC3=O)C4=O)(C1)C2 (stereo not shown) [Compound 90, 3-(((3-amino-6-(2-hydroxyphenyl)pyridazin-4-yl)oxy)methyl)-N-(2-(2-(2-(2-((2-(2,6-dioxopiperidin-3-yl)-1,3-dioxoisoindolin-4-yl)oxy)acetamido)ethoxy)ethoxy)ethyl)bicyclo[1.1.1]pentane-1-carboxamide] | C (“C” indicates maximum degradation < 50%) |
| < 50% | Nc1nnc(-c2ccccc2O)cc1OCC12CC(C(=O)NCCOCCOCCOCCNC(=O)COc3ccc4c(c3)C(=O)N(C3CCC(=O)NC3=O)C4=O)(C1)C2 (stereo not shown) [Compound 93, 3-(((3-amino-6-(2-hydroxyphenyl)pyridazin-4-yl)oxy)methyl)-N-(1-((2-(2,6-dioxopiperidin-3-yl)-1,3-dioxoisoindolin-5-yl)oxy)-2-oxo-6,9,12-trioxa-3-azatetradecan-14-yl)bicyclo[1.1.1]pentane-1-carboxamide] | C (“C” indicates maximum degradation < 50%) |
| > 50% | Nc1nnc(-c2ccccc2O)cc1OCC12CC(C(=O)N3CCC(CCCCN4CCN(c5ccc6c(c5)C(=O)N(C5CCC(=O)NC5=O)C6=O)CC4)CC3)(C1)C2 (stereo not shown) [Compound 95, 5-(4-(4-(1-(3-(((3-amino-6-(2-hydroxyphenyl)pyridazin-4-yl)oxy)methyl)bicyclo[1.1.1]pentane-1-carbonyl)piperidin-4-yl)butyl)piperazin-1-yl)-2-(2,6-dioxopiperidin-3-yl)isoindoline-1,3-dione; formic acid] | B (“B” indicates maximum degradation ≥ 50%) |
| < 50% | Nc1nnc(-c2ccccc2O)cc1OCC12CC(C(=O)N3CC(Oc4ccc5c(c4)C(=O)N(C4CCC(=O)NC4=O)C5=O)C3)(C1)C2 (stereo not shown) [Compound 96, 5-((1-(3-(((3-amino-6-(2-hydroxyphenyl)pyridazin-4-yl)oxy)methyl)bicyclo[1.1.1]pentane-1-carbonyl)azetidin-3-yl)oxy)-2-(2,6-dioxopiperidin-3-yl)isoindoline-1,3-dione] | C (“C” indicates maximum degradation < 50%) |

Further lines, the compound ahead of its results:

| Structure (SMILES) | Dmax [1] | BRM HiBit Degradation Maximum (%) [2] |
| --- | --- | --- |
| Nc1nnc(-c2ccccc2O)cc1OCC12CC(C(=O)NCCOC3CN(c4ccc5c(c4)C(=O)N(C4CCC(=O)NC4=O)C5=O)C3)(C1)C2 (stereo not shown) [Compound 81, 3-(((3-amino-6-(2-hydroxyphenyl)pyridazin-4-yl)oxy)methyl)-N-(2-((1-(2-(2,6-dioxopiperidin-3-yl)-1,3-dioxoisoindolin-5-yl)azetidin-3-yl)oxy)ethyl)bicyclo[1.1.1]pentane-1-carboxamide] | > 50% | B (“B” indicates maximum degradation ≥ 50%) |
| Nc1nnc(-c2ccccc2O)cc1OCC12CC(C(=O)NCCOCc3cccc(COCCOc4ccc5c(c4)C(=O)N(C4CCC(=O)NC4=O)C5=O)c3)(C1)C2 (stereo not shown) [Compound 84, 3-(((3-amino-6-(2-hydroxyphenyl)pyridazin-4-yl)oxy)methyl)-N-(2-((3-((2-((2-(2,6-dioxopiperidin-3-yl)-1,3-dioxoisoindolin-5-yl)oxy)ethoxy)methyl)benzyl)oxy)ethyl)bicyclo[1.1.1]pentane-1-carboxamide; formic acid] | < 50% | C (“C” indicates maximum degradation < 50%) |
| Nc1nnc(-c2ccccc2O)cc1OCC12CC(C(=O)NCCOCc3cccc(COCCOc4cccc5c4C(=O)N(C4CCC(=O)NC4=O)C5=O)c3)(C1)C2 (stereo not shown) [Compound 85, 3-(((3-amino-6-(2-hydroxyphenyl)pyridazin-4-yl)oxy)methyl)-N-(2-((3-((2-((2-(2,6-dioxopiperidin-3-yl)-1,3-dioxoisoindolin-4-yl)oxy)ethoxy)methyl)benzyl)oxy)ethyl)bicyclo[1.1.1]pentane-1-carboxamide] | < 50% | C (“C” indicates maximum degradation < 50%) |
| Nc1nnc(-c2ccccc2O)cc1OCC12CC(C(=O)N3CC(COc4cccc5c4C(=O)N(C4CCC(=O)NC4=O)C5=O)C3)(C1)C2 (stereo not shown) [Compound 87, 4-((1-(3-(((3-amino-6-(2-hydroxyphenyl)pyridazin-4-yl)oxy)methyl)bicyclo[1.1.1]pentane-1-carbonyl)azetidin-3-yl)methoxy)-2-(2,6-dioxopiperidin-3-yl)isoindoline-1,3-dione] | < 50% | C (“C” indicates maximum degradation < 50%) |
| Nc1nnc(-c2ccccc2O)cc1OCC12CC(C(=O)NCCCC#Cc3cccc4c3C(=O)N(C3CCC(=O)NC3=O)C4=O)(C1)C2 (stereo not shown) [Compound 88, 3-(((3-amino-6-(2-hydroxyphenyl)pyridazin-4-yl)oxy)methyl)-N-(5-(2-(2,6-dioxopiperidin-3-yl)-1,3-dioxoisoindolin-4-yl)pent-4-yn-1-yl)bicyclo[1.1.1]pentane-1-carboxamide] | < 50% | C (“C” indicates maximum degradation < 50%) |
| Nc1nnc(-c2ccccc2O)cc1OCC12CC(C(=O)NCCOCCOCCNC(=O)COc3ccc4c(c3)C(=O)N(C3CCC(=O)NC3=O)C4=O)(C1)C2 (stereo not shown) [Compound 91, 3-(((3-amino-6-(2-hydroxyphenyl)pyridazin-4-yl)oxy)methyl)-N-(2-(2-(2-(2-((2-(2,6-dioxopiperidin-3-yl)-1,3-dioxoisoindolin-5-yl)oxy)acetamido)ethoxy)ethoxy)ethyl)bicyclo[1.1.1]pentane-1-carboxamide] | < 50% | C (“C” indicates maximum degradation < 50%) |
| Nc1nnc(-c2ccccc2O)cc1OCC12CC(C(=O)NCCOCCOCCOCCNC(=O)COc3cccc4c3C(=O)N(C3CCC(=O)NC3=O)C4=O)(C1)C2 (stereo not shown) [Compound 92, 3-(((3-amino-6-(2-hydroxyphenyl)pyridazin-4-yl)oxy)methyl)-N-(1-((2-(2,6-dioxopiperidin-3-yl)-1,3-dioxoisoindolin-4-yl)oxy)-2-oxo-6,9,12-trioxa-3-azatetradecan-14-yl)bicyclo[1.1.1]pentane-1-carboxamide] | < 50% | C (“C” indicates maximum degradation < 50%) |
| Nc1nnc(-c2ccccc2O)cc1OCC12CC(C(=O)N3CCC(CCN4CCN(c5ccc6c(c5)C(=O)N(C5CCC(=O)NC5=O)C6=O)CC4)CC3)(C1)C2 (stereo not shown) [Compound 94, 5-(4-(2-(1-(3-(((3-amino-6-(2-hydroxyphenyl)pyridazin-4-yl)oxy)methyl)bicyclo[1.1.1]pentane-1-carbonyl)piperidin-4-yl)ethyl)piperazin-1-yl)-2-(2,6-dioxopiperidin-3-yl)isoindoline-1,3-dione] | < 50% | B (“B” indicates maximum degradation ≥ 50%) |
